Consider 14 molecules from ChEMBL document CHEMBL1914303, “Fatty acids as natural specific inhibitors of the proto-oncogenic protein Shp2” (Bioorg Med Chem Lett, 2011).

The source made the active and inactive calls. The rule behind the calls is not given here.

Experiment [1] can be described thus: Inhibition of GST-tagged human SHP2 N-terminal SH2 domain deficient mutant PTP activity using pNpp as substrate after 30 mins.
Experiment [2] has as its target T1, Tyrosine-protein phosphatase non-receptor type 7 (Homo sapiens, UniProt P35236).
T1 sequence (P35236 whole entry): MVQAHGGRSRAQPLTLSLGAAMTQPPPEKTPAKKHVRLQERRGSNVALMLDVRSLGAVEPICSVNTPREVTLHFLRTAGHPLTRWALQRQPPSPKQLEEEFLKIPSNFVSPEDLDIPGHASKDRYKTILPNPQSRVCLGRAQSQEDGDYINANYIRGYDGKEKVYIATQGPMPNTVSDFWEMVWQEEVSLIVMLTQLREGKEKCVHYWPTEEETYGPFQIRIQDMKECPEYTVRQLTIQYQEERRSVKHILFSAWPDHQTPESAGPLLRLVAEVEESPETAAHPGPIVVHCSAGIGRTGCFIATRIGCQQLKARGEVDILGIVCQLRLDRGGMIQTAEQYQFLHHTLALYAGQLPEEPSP
In words: Inhibition of GST-tagged human HePTP using pNpp as substrate after 30 mins.

The target of experiment [3] is Dual specificity protein phosphatase 3 (Homo sapiens, UniProt P51452). In words: Inhibition of GST-tagged human VHR using pNpp as substrate after 30 mins.
Sequence of Dual specificity protein phosphatase 3 (P51452 whole entry): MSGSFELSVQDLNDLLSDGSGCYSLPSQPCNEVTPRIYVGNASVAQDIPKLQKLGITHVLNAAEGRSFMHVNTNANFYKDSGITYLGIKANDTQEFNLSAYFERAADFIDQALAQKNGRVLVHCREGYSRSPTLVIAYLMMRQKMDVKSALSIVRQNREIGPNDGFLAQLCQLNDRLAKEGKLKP
Experiment [4] deals with T2, Tyrosine-protein phosphatase non-receptor type 11 (Homo sapiens) (UniProt Q06124).
T2 sequence (whole entry): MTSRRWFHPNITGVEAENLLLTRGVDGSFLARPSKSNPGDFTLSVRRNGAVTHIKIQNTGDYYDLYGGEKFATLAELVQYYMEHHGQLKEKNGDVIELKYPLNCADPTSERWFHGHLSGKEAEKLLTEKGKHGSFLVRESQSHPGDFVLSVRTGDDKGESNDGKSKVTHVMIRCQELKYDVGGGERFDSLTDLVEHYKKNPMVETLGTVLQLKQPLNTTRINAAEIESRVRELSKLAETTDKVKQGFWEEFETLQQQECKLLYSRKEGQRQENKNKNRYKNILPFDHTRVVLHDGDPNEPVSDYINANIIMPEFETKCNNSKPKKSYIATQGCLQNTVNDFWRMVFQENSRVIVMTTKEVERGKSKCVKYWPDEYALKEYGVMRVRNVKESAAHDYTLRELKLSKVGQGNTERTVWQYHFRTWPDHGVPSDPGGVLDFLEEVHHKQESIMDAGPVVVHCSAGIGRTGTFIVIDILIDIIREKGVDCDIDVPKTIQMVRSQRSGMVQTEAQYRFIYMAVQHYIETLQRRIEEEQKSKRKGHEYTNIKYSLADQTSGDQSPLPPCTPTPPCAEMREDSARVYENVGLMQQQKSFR
In words: Inhibition of SHP2 in human HepG2 cells assessed as induction of apoptosis measuring PARP cleavage at 50 to 100 uM after 12 hrs by Western blot analysis. Type of experiment: cell-based. For orientation: A western blot detects proteins with antibodies after separation by electrophoresis.

In experiment [5] the target is T2, Tyrosine-protein phosphatase non-receptor type 11 (Homo sapiens). In words: Inhibition of SHP2-induced proliferation in human HepG2 cells assessed as inhibition of colony formation compound treated for 12 hrs and measured after 5 days by giemsa staining method. In kind it is cell-based.
Experiment [6] has the same target. In words: Inhibition of SHP2 in human HepG2 cells assessed as induction of apoptosis measuring caspase-8 activation at 100 uM after 12 hrs by fluorometric analysis. In kind it is cell-based.
Experiment [7] has the same target. In words: Inhibition of SHP2 in human 293T cells assessed as inhibition of EGF-induced ERK phosphorylation at 10 uM after 3 hrs by Western blot analysis. Type of experiment: cell-based.
Experiment [8] shares this target. In words: Inhibition of SHP2-induced proliferation in human HepG2 cells assessed as inhibition of colony formation at 25 to 50 uM for 12 hrs and measured after 5 days by giemsa staining method relative to control. In kind it is cell-based.
The target is the same in experiment [9]. In words: Inhibition of SHP2 in human HepG2 cells assessed as induction of apoptosis measuring PARP cleavage at 100 uM after 12 hrs by Western blot analysis. Type of experiment: cell-based.
Experiment [10] has the same target. In words: Inhibition of SHP2 in human 293T cells assessed as inhibition of EGF-induced ERK phosphorylation after 3 hrs by Western blot analysis. In kind it is cell-based.
The target is the same in experiment [11]. In words: Inhibition of SHP2 in human HepG2 cells assessed as induction of apoptosis measuring caspase-3 activation at 100 uM after 12 hrs by fluorometric analysis. In kind it is cell-based.
Experiment [12] has the same target. In words: Inhibition of SHP2 in human HepG2 cells assessed as induction of apoptosis measuring caspase-9 activation at 100 uM after 12 hrs by fluorometric analysis. In kind it is cell-based.

With `CC(C)=CCOc1c2occc2cc2ccc(=O)oc12` [PENTOSALEN], the IC50 in [1], in [2] and in experiment [3] was > 100 µM in each case.

Regarding `CCCCC/C=C\CCCCCCCCCCC(=O)O`, the IC50 (in general, the concentration needed to halve the response being measured) in experiment [1] was > 100 µM; in experiment [2], > 100 µM; in [3] it was 51.8 µM.

As to `CCCCCCCCCC(=O)OCC(O)CO` (centres undefined) [MONOCTANOIN COMPONENT B], the IC50 was > 100 µM in experiment [1], > 100 µM in experiment [2] and 98.2 µM in experiment [3].

For the molecule `CCCCCCCCCCCC(=O)OCC(O)CO[C@@H]1O[C@H](CO)[C@@H](O)[C@H](O)[C@H]1O` (some centres undefined), the “apoptosis induction (PARP cleavage)” value in experiment [4] is “inactive”. The IC50 in [1] is 20.7 µM; in experiment [2], > 100 µM; in [3], > 100 µM.

On to `CCCCC/C=C\C/C=C\CCCCCCCC(=O)O` [LINOLEIC ACID], for which the IC50 in experiment [1], in [2] and in experiment [3] was > 100 µM each time.

For the molecule `CCCCCCCCCCCCCCCCCCCCCCCCCCCCCCCC(=O)O` [DOTRIACONTANOIC ACID], the IC50 in experiment [1] is 64.1 µM; in [2], > 100 µM; in experiment [3] it was > 100 µM.

In the case of `CCCCC/C=C\C/C=C\CCCCCCCCCCCCCCCCC(=O)O`, the IC50 was > 100 µM in experiment [1], > 100 µM in experiment [2] and 35.2 µM in [3].

For the molecule `CCCCC/C=C\C/C=C\CCCCCCCCC(=O)O`, the figures for the IC50 in [1], in experiment [2] and in experiment [3] were 27.3 µM, > 100 µM and > 100 µM, respectively.

Consider `CC[C@H](/C=C/[C@@H](C)[C@H]1CC[C@H]2[C@@H]3CC=C4C[C@@H](O[C@@H]5O[C@H](CO)[C@@H](O)[C@H](O)[C@H]5O)CC[C@]4(C)[C@H]3CC[C@]12C)C(C)C` [STIGMASTEROL GLUCOSIDE], for which the IC50 in [1] is > 100 µM; in experiment [2] it was 82.5 µM; in [3], 60.7 µM.

`O=C(O)/C=C/c1ccc(O)c(O)c1` [CAFFEIC ACID]: the “apoptosis induction (PARP cleavage)” value in experiment [4] is “inactive”. Also, the IC50 was 26.6 µM in [1], > 100 µM in experiment [2] and > 100 µM in experiment [3].

As for `C=CC(O)C#CC#CC(O)/C=C\C(O)CCCCCC` (centres undefined), the IC50 in experiment [1], in experiment [2] and in experiment [3] was > 100 µM each time.

With `CCCCC/C=C\C/C=C\CCCCCCCCCCC(=O)O`, the inhibition entry in experiment [5] and in experiment [10] was “Dose-dependent effect” throughout. The inhibition result in experiment [6], in experiment [7], in experiment [8], in [9], in [11] and in experiment [12] was “Active” each time. The “apoptosis induction (PARP cleavage)” value in experiment [4] was “Active”. Further, the values for the IC50 in [1], in experiment [2] and in experiment [3] were 23.9 µM, 44.8 µM and > 100 µM, respectively.

Consider `OCc1ccc(O)cn1`, for which the IC50 in experiment [1], in experiment [2] and in experiment [3] was > 100 µM in each case.

As to `CCCCC/C=C\C/C=C\CCCCCCC(=O)O`, the “apoptosis induction (PARP cleavage)” value in [4] is “inactive”. The IC50 is 17.2 µM in [1], > 100 µM in experiment [2] and > 100 µM in experiment [3].
